{
  "source": "paper PMC6434714",
  "about": "(Journal of natural products, 2018)",
  "key": {"[1]": {"tested_on": "S. aureus subsp. aureus (Newman strain)", "assay": "Antimicrobial activity", "details": "for activity against S. aureus (in words): growth inhibition"}, "S. aureus": {"tested_on": "S. aureus", "details": "cited from earlier work"}, "[2]": {"molecular_target": "A. aeolicus MraY (AaMraY) (Aquifex aeolicus, UniProt O66465)", "sequence (O66465 whole entry)": "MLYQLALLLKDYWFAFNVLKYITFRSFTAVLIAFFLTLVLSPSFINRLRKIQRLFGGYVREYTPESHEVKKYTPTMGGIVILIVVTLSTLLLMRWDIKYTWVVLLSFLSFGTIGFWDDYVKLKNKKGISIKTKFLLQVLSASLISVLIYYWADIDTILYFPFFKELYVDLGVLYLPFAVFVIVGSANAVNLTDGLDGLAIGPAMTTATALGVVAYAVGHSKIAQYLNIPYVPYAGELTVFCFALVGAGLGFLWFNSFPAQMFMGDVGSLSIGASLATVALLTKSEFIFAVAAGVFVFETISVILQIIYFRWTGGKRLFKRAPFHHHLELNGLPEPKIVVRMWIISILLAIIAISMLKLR", "assay": "Fluorescence-based in vitro MraY assay, A. aeolicus MraY", "type": "biochemical"}, "E. coli imp mutant": {"tested_on": "E. coli imp mutant", "details": "cited from earlier work"}, "Staphylococcal": {"tested_on": "Staphylococcal", "details": "cited from earlier work"}},
  "data": [
    {"smiles": "CO[C@H]1[C@H](O[C@H]([C@H]2O[C@@H](n3ccc(=O)[nH]c3=O)[C@H](O)[C@@H]2O)[C@H](NCCCNC(=O)[C@@H](NC(=O)[C@@H](NC(=O)N[C@H](C(=O)O)C(C)C)[C@@H]2CCNC(=N)N2)[C@@H](OC(=O)CCCCCCCCCCC(C)C)C(C)C)C(=O)O)O[C@H](CN)[C@H]1O", "note": "[Compound 2, muraymycin B9]", "values": [
      {"measurement": "S. aureus growth inhibition MIC", "setting": "[1]; Newman strain, 37 °C, 16 h", "value": "2 to 6", "unit": "µg/mL"}
    ]},
    {"smiles": "CO[C@H]1[C@H](O[C@H]([C@H]2O[C@@H](n3ccc(=O)[nH]c3=O)[C@H](O)[C@@H]2O)[C@H](NCCCNC(=O)[C@@H](NC(=O)[C@@H](NC(=O)N[C@H](C(=O)O)C(C)C)[C@@H]2CCN=C(N)N2)[C@@H](OC(=O)CCCCC(C)C)C(C)C)C(=O)O)O[C@H](CN)[C@H]1O", "note": "[muraymycin B6]", "values": [
      {"measurement": "MIC against S. aureus", "setting": "S. aureus", "value": "> 32", "unit": "µg/mL"}
    ]},
    {"smiles": "CO[C@H]1[C@H](O[C@H]([C@H]2O[C@@H](n3ccc(=O)[nH]c3=O)[C@H](O)[C@@H]2O)[C@H](NCCCNC(=O)[C@@H](NC(=O)[C@@H](NC(=O)N[C@H](C(=O)O)C(C)C)[C@@H]2CCN=C(N)N2)[C@@H](OC(=O)CCCCCCC(C)C)C(C)C)C(=O)O)O[C@H](CN)[C@H]1O", "note": "[muraymycin B2]", "values": [
      {"measurement": "MIC against S. aureus", "setting": "S. aureus", "value": "> 32", "unit": "µg/mL"}
    ]},
    {"smiles": "CO[C@H]1[C@H](O[C@H]([C@H]2O[C@@H](n3ccc(=O)[nH]c3=O)[C@H](O)[C@@H]2O)[C@H](NCCCNC(=O)[C@@H](NC(=O)[C@@H](NC(=O)N[C@H](C(=O)O)C(C)C)[C@@H]2CCNC(=N)N2)[C@@H](OC(=O)CCCCCCCCCCCCC(C)C)C(C)C)C(=O)O)O[C@H](CN)[C@H]1O", "note": "[Compound 1, muraymycin B8]", "values": [
      {"measurement": "IC50", "setting": "[2]", "value": 0.068, "unit": "nM"},
      {"measurement": "MIC", "setting": "[1]; Staphylococcus aureus, NEWMAN, 16 h, read-out: S. aureus growth inhibition MIC, Newman strain, 37 °C, 16 h", "value": "2 to 6", "unit": "µg/mL"}
    ]},
    {"smiles": "CO[C@H]1[C@H](O[C@H]([C@H]2O[C@@H](n3ccc(=O)[nH]c3=O)[C@H](O)[C@@H]2O)[C@H](NCCCNC(=O)[C@@H](NC(=O)[C@@H](NC(=O)N[C@H](C(=O)O)C(C)C)[C@@H]2CCNC(=N)N2)[C@@H](OC(=O)CCCCCCCCCCCCN(O)C(=N)N)C(C)C)C(=O)O)O[C@H](CN)[C@H]1O", "note": "[Muraymycin A1]", "values": [
      {"measurement": "MIC against E. coli imp mutant", "setting": "E. coli imp mutant", "value": "< 0.03", "unit": "µg/mL"},
      {"measurement": "MIC against Staphylococcal", "setting": "Staphylococcal", "value": "2 to 16", "unit": "µg/mL"}
    ]},
    {"smiles": "CO[C@H]1[C@H](O[C@H]([C@H]2O[C@@H](n3ccc(=O)[nH]c3=O)[C@H](O)[C@@H]2O)[C@H](NCCCNC(=O)[C@@H](NC(=O)[C@@H](NC(=O)N[C@H](C(=O)O)C(C)C)[C@@H]2CCNC(=N)N2)[C@@H](O)C(C)C)C(=O)O)O[C@H](CNC(C)=O)[C@H]1O", "note": "[Compound 3, 16-N-acetyl-muraymycin C1]", "values": [
      {"measurement": "activity against S. aureus (in words)", "setting": "[1]", "value": "inactive"}
    ]},
    {"smiles": "CO[C@H]1[C@H](O[C@H]([C@H]2O[C@@H](n3ccc(=O)[nH]c3=O)[C@H](O)[C@@H]2O)[C@H](NCCCNC(=O)[C@@H](NC(=O)[C@@H](NC(=O)N[C@H](C(=O)O)C(C)C)[C@@H]2CCNC(=N)N2)[C@@H](O)C(C)C)C(=O)O)O[C@H](CN)[C@H]1O", "note": "[muraymycin C1]", "values": [
      {"measurement": "activity against S. aureus (in words)", "setting": "[1]", "value": "inactive"}
    ]}
  ]
}
